Assay [1] has as its system HIV-1 in U1 cells (IL-6 mediated expression). Briefly: IL-6-mediated HIV-1 p24 antigen expression in chronically infected U1 cells. Type of assay: cell-based, HIV-1; human cells. The procedure:
FIG. 17 illustrates a dose response curves of CT2576 on constitutive, TNF-α, and IL-6-mediated expression of HIV-1 in a chronically infected U1 cell line (left Y-axis) and of CT3537 on HIV expression in PBL acutely infected with the JR-CSF primary isolate (right Y-axis). U1 cells were incubated for four days after the addition of CT2576 with or without TNF-α (20 pg/ml) or IL-6 (1 ng/ml). PBL were inoculated with HIV at 10 ng virus/10^6 cells/well and incubated with various concentrations of CT3537 for 7 days. Each data point represents the average expression levels of HIV-1 p24-antigen in the cell supernatants measured by ELISA from triplicate samples with error bar indicating the SD.
(§1) Stable cell lines 293tar, 293tat and 293tat2 were generated by transfections using conditions described in (Tate et al., FASEB J. 4:227-231, 1990) with the plasmid pHIV.AP alone or along with either pHIV.tat or pSV2tat72, respectively. The assay of HIV-1 p24 antigen expression in the chronically HIV-1-infected promonocytic line U1 after 4 days and in acutely infected peripheral blood lymphocytes (PBL) after 7 days were described (Peterson et al., J. Clin. Invest. 89:574-580, 1992, and Brighty et al., Proc Natl. Acad. Sci. USA 88:7802-7805, 1991).
This example illustrates that CT2576 inhibited both constitutive and cytokine-induced HIV expression in a chronically-infected U1 cell line. A chronically HIV-1 infected human promonocyte cell line, U1 (Poli et al., J. Exp. Med. 172:151-158, 1990), was used as a model to see if the inhibitory effect of CT2576 on HIV-LTR driven reporter gene expression could be extended to block HIV replication per se in infected cells. TNF-α and IL-6 have been reported to upregulate the expression of HIV-1 in U1 cells (Poli et al., Proc Natl. Acad. Sci. USA 91:108-112, 1994). U1 cells were plated onto 24-well microtiter plates to study the dose-response effect of CT2576 on the constitutive (10^4 cells/well), TNF-α or IL-6 mediated (2×10^3 cells/well) expression of HIV-1. […]

Assay [2] concerns PA formation in EB293 cells. In words: PA and lyso (bis) PA species in TNF-stimulated EB293 cells (HPLC peaks D and A5). Type of assay: cell-based, human. The following applies: CT2576 10 μM, TNF 20 ng/ml. The source says:
One must first quantitatively and qualitatively separate PAs from the other lipids found in serum by a chemical extraction of lipids and high performance liquid chromatography (HPLC) to separate and detect PAs. Chemical extraction can be accomplished, for example, by the method of Bligh et al. (Canadian J. Biochem. Physiol. 37:911-917, 1959) or that of Folch et al. (J. Biol. Chem. 226:497-509, 1957). Briefly, the method of Bligh et al. involves an organic extraction of lipids from biological tissue homogenates or fluids. One volume of sample and three volumes of methanol:chloroform (2:1) are vigorously shaken for 2 min. One volume of chloroform is added and then shaken vigorously for 30 sec. One volume of water is added and then shaken vigorously for 30 sec. The mixture is filtered and the upper aqueous layer is discarded. The lower organic layer contains a mixture of lipid classes. The method of Folch et al. involves the extraction of lipids from biological tissue homogenates or body fluids. One volume of sample plus 20 volumes of chloroform:methanol (2:1) are vigorously shaken for 2 min. The mixture is filtered and an amount of 0.1 N KCl equal to 20% of the extraction mixture volume is added and the mixture is shaken vigorously for 2 min. The aqueous and organic phases are allowed to separate. The upper aqueous layer is discarded. […]

Assay [3] concerns HIV-LTR promoter in 293tat cells. Briefly: HIV-LTR directed AP reporter expression in 293tat cells activated by tat and TNF-α. The following applies: Homo sapiens. Type of assay: cell-based. The procedure: 293tat cells, a cell line stably transfected with the expression plasmids pHIV.AP and pHIV.tat, were plated onto 96-well microtiter plates at 2000 cells per well. The media were changed the next day and CT2576 was added at the indicated concentrations to the fresh media with or without TNF-α (20 ng/ml). 2 μl of medium from each well was used for AP assay 24 hr later. After culture media were withdrawn for AP assay, cytotoxicity was measured for the same cell cultures using an indicator dye, Alamar Blue™, that would change color in response to the reduction potential of cell medium due to cell growth. The left y-axis refers to the absorbance value of the reduced form of Alamar Blue™ at 570 nm with the background absorbance at 600 nm from the oxidized form of Alamar Blue™ subtracted. Each data point represents the mean of triplicate samples with error bar indicating the standard deviation of the mean.
as §1
This example illustrates that CT2576 inhibited TNF-α and tat-activated HIV-LTR promoter directed expression in 293tat cells. Cell activation signals generated by interaction of ligands with receptors are eventually converted to changes in the pattern of gene expression. A reporter gene expression system under the control of the HIV-LTR promoter was set up to investigate compounds that inhibit signaling pathway for HIV activation in infected cells. […]

Read-outs that look alike come from different tables or passages of the source.

Results on 1 compound are retold here after patent US5985926A, “Method for inhibiting intracellular viral replication” (Cell Therapeutics, Inc., priority 1997, dated 1999).

For `CCCCCCCCNCC(O)CCCCCCCCCn1c(=O)c2c(ncn2C)n(C)c1=O` (centres unmarked) [CT2576, 1-(11-octylamino-10-hydroxyundecyl)-3,7-dimethylxanthine], the IC50 in assay [1] (Human immunodeficiency virus 1, 96 h, read-out: IC50, IL-6 mediated HIV expression, U1 cells, 4 days) is around 1 µM; in assay [1] (U1 cells, 4 days, read-out: IC50, IL-6 mediated HIV expression), below 1 µM; in assay [3] (read-out: IC50, TNF-α induced HIV-LTR directed AP expression, 293tat cells, with TNF-α (20 ng/ml)), around 10 µM; in assay [3] (read-out: IC50, tat-dependent HIV-LTR directed AP expression, 293tat cells, tat activation, without TNF-α), around 10 µM. Further, the “inhibition of IL-6 mediated HIV-1 expression (p24)” value in assay [1] (U1 cells, in words) was “inhibited”. Also, the “PA mass (peak D), TNF-stimulated EB293 cells” value in assay [2] was “reduced PA mass across all time points measured”. For the same compound, in assay [2], the “lyso (bis) PA species (peak A5), TNF-stimulated EB293 cells” value is reported as “increased lyso (bis) PA species across all time points”. The inhibition at 12 µM in assay [3] (24 h, 293tat cells, CT2576 12 μM, after TNF-α or IL-1β induction, read-out: decrease in AP activity after TNF-α or IL-1β induction) was in the range of 83 to 90%.
